According to ChEMBL document CHEMBL1154681, “Structural aspects of flavonoids as inhibitors of human butyrylcholinesterase” (Eur J Med Chem, 2010):
Calls of active or inactive are those of the source. No cut-off for these calls is given here.

Legend:
[1] = test system: HepG2; assay: Cytotoxicity against human HepG2 cells upto 200 umol/L after 24 hrs by MTS assay; assay type: cell-based; conditions: hepg2, 24 h
[2] = biological target: Acetylcholinesterase (Homo sapiens, UniProt P22303); assay: Inhibition of human recombinant AChE by Ellman's method
[3] = test system: THP-1; assay: Cytotoxicity against human THP1 cells after 24 hrs by MTS assay; assay type: cell-based
[4] = test system: A549; assay: Cytotoxicity against human A549 cells upto 200 umol/L after 24 hrs by MTS assay; assay type: cell-based; conditions: a549, 24 h
[5] = Stability in phosphate buffer at pH 7.4 after 90 mins by spectrophotometry; assay type: physicochemical; conditions: pH 7.4, 1.5 h
[6] = biological target: T1, Cholinesterase (Homo sapiens, UniProt P06276); assay: Inhibition of human plasma BChE by Ellman's method
[7] = biological target: T1, Cholinesterase; assay: Inhibition of human plasma BChE upto 45 mins at 100 umol/L by Ellman's method; assay type: cell-free

Sequence of Acetylcholinesterase (P22303 whole entry): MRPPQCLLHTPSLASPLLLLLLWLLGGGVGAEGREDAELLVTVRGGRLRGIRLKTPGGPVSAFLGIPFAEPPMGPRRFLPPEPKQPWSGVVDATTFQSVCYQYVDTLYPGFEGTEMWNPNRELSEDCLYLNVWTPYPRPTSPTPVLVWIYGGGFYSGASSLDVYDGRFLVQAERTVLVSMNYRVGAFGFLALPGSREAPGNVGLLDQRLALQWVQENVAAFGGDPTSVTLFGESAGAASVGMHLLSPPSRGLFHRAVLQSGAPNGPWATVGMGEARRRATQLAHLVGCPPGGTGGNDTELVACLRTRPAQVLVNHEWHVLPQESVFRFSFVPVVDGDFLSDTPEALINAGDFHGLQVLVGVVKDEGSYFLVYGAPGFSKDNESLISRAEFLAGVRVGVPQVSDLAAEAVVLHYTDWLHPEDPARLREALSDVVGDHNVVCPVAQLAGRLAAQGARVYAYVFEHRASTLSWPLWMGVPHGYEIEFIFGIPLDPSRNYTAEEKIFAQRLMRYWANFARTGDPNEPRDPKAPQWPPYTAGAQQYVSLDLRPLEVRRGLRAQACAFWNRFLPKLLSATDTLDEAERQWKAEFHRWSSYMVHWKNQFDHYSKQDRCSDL
T1 sequence (P06276 whole entry): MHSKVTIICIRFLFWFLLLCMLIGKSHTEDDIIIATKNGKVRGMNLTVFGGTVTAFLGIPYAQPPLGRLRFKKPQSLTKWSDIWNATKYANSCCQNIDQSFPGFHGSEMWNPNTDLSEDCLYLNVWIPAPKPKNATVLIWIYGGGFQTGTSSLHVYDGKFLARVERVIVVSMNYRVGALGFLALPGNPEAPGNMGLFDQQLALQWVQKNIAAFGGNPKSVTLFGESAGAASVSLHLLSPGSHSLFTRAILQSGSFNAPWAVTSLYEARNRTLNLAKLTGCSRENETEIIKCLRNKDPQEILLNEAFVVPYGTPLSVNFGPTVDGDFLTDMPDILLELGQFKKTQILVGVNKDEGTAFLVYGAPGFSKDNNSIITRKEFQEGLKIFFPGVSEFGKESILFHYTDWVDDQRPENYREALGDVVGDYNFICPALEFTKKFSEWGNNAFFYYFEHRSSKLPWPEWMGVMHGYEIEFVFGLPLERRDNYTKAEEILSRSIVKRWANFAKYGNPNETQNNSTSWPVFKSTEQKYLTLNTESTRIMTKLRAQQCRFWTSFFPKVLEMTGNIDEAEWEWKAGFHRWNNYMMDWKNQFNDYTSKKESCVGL

## O=c1cc(-c2ccc(O)cc2)oc2cc(O)cc(O)c12 [APIGENIN]
[1]
  Activity: Non-toxic
[2]
  Ki: 121.6 microM/L
[3]
  IC50: 60 microM/L
[4]
  Activity: Non-toxic
[5]
  Stability: Unstable
[6]
  Ki: 37.4 microM/L

## O=c1c(O)c(-c2ccc(O)c(O)c2)oc2cc(O)ccc12 [FISETIN]
[1]
  Activity: Non-toxic
[2]
  Ki: 100.2 microM/L
[3]
  IC50: 30 microM/L
[4]
  Activity: Non-toxic
[5]
  Stability: Unstable
[6]
  Ki: 90 microM/L

## O=c1c(O)c(-c2ccccc2)oc2cc(O)cc(O)c12 [GALANGIN]
[1]
  Activity: Non-toxic
[2]
  Ki: 85.6 microM/L
[4]
  Activity: Non-toxic
[5]
  Stability: Unstable
[6]
  Ki: 6.9 microM/L

## O=c1c(O)c(-c2ccc(O)cc2)oc2cc(O)cc(O)c12 [KAEMPFEROL]
[7]
  inhibition: inactive
[1]
  Activity: Non-toxic
[2]
  Ki: 92.8 microM/L
[4]
  Activity: Non-toxic
[5]
  Stability: Unstable
[6]
  Ki: 43.1 microM/L

## O=c1cc(-c2ccc(O)c(O)c2)oc2cc(O)cc(O)c12 [LUTEOLIN]
[1]
  Activity: Non-toxic
[2]
  Ki: 65.8 microM/L
[3]
  IC50: 70 microM/L
[4]
  Activity: Non-toxic
[5]
  Stability: Unstable
[6]
  Ki: 166.1 microM/L

## O=c1c(O)c(-c2cc(O)c(O)c(O)c2)oc2cc(O)cc(O)c12 [MYRICETIN]
[7]
  inhibition: inactive
[1]
  Activity: Non-toxic
[2]
  Ki: 37.8 microM/L
[4]
  Activity: Non-toxic
[6]
  Ki: 71 microM/L

## O=c1c(O)c(-c2ccc(O)c(O)c2)oc2cc(O)cc(O)c12 [QUERCETIN]
[1]
  Activity: Non-toxic
[2]
  Ki: 38.3 microM/L
[4]
  Activity: Non-toxic
[5]
  Stability: Unstable
[6]
  Ki: 68 microM/L

## C[C@@H]1O[C@@H](OC[C@H]2O[C@@H](Oc3c(-c4ccc(O)c(O)c4)oc4cc(O)cc(O)c4c3=O)[C@H](O)[C@@H](O)[C@@H]2O)[C@H](O)[C@H](O)[C@H]1O [RUTIN]
[1]
  Activity: Non-toxic
[2]
  Ki: > 300 microM/L
[4]
  Activity: Non-toxic
[5]
  Stability: Stable
[6]
  Ki: 501.2 microM/L
